# Patent US12351634B2, “Use of cilengitide for ameliorating cardiac fibrosis occurring in response to myocardial infarction” (priority 2018, dated 2025)
# Tests used:
# [1] = test system: integrin αV, including αVβ1, αVβ3 and αVβ5; conditions: cited from earlier work
# [2] = test system: cardiac PW1+ cells in PW1nLacZ-reporter mouse post-MI hearts; assay: Short-term lineage tracing of cardiac PW1+ cells in post-MI heart sections; assay type: in vivo; conditions: cardiac sections of post-MI (7 days) hearts, vs vehicle
# Description: Male 8 weeks-old C57BL/6 or PW1-reporter (PW1^nLacZ) mice were anesthetized in an induction chamber with 2% isoflurane mixed with 1.0 L/min 100% 02 and placed on a supine position on a heating pad to maintain body temperature. The mice were intubated with endotracheal tube and then connected to a rodent ventilator (180 breaths/min and a tidal volume of 200 μl). During surgical procedure anesthesia is maintained at 1.5-2% isoflurane with O2. The chest was accessed from the left side through the intercostal space and the pericardium incised. The left anterior descending coronary artery (LAD) was exposed and encircled with a 8.0 prolene suture at the apex of the left ventricle. The suture was briefly snared to confirm the ligation by blanching the arterial region. Mice were analyzed 7 days after LAD permanent ligation.
# Male C57BL/6J mice (Janvier labs) or PW1-reporter (PW1^nLacZ) mice received Cilengitide at 10 mg/kg/day (Adooq bioscience, ref: A12372) or vehicle i.p. for 14 days. LAD surgery was performed 7 days after starting cilengitide or vehicle administration. Mice were divided in 4 groups: MI-CIL (Cilengitide), MI-Veh (vehicle), Ctrl-CIL and Ctrl-Veh. […]
# [3] = test system: FACS-isolated cardiac PW1+ cells; assay: Pharmacological inhibition of PW1+ cells in vitro, Q-PCR on fibrosis markers; assay type: cell-based, mouse; conditions: cilengitide 300 nM, 1000 nM vs vehicle, treated for 48 h
# Description: Animals were injected with heparin (100 UI/25 g) before euthanasia. The right atrium was carefully nicked with surgical scissors and the heart was perfused with 10 mL of PBS (Gibco) through the right ventricle to remove the blood. After collecting the heart, the atria were trimmed away and the ventricles were finely sliced (0.5-1 mm^3). Cardiac cells were dissociated at 37° C. for 30 min by enzymatic digestion with 480 U/mL collagenase II (Worthington) in DPBS (GIBCO). The digestion was stopped with DMEM (Life Technologies) supplemented into 10% FBS (Sigma) and 1% penicillin/streptomycin (P/S; Life Technologies) and the cell suspension was filtered through 100 μm Falcon cell strainer before centrifugation at 416 g for 10 min at 4° C. The cell pellet was re-suspended in 500 μL of Red Blood Cell Lysing (RBCL) Buffer to lyse red blood cells at RT for 30 sec. DPBS was added before 10 min centrifugation in same conditions as above. The cell pellet was then re-suspended in 300 μL of HBSS (Gibco) containing 1% FBS (HBSS-1% FBS) to perform immunostaining for 45 min on ice in dark. The list of antibodies used is reported in supplemental table 1. After incubation, HBSS-1% FBS was added and cells centrifuged at 416 g for 10 min at 4° C. to perform PW1+ cells staining. For this, 300 μL of HBSS-1% FBS containing 60 μM of 5-Dodecanoylaminofluorescein Di-β-D-Galactopyranoside (C12FDG, ThermoFisher Scientific) a substrate for β-gal detection by flow cytometry was added on cells then incubated in dark at 37° C. for 1 h under constant agitation. Reaction was stopped by the addition of HBSS-1% FBS. After cell centrifugation, the pellet was re-suspended in 200 μL of HBSS-1% FBS, the viability dye propidium iodide (Sigma) was added and the samples were filtered through a 50 μm Filcon (BD bioscience) just before the analysis.
# FACS sorted PW1^+ or PW1^− cells were plated at the density of 25 000 cell per cm^2 in culture plates coated with attachment factor (ThermoFisher Scientific). Cells were left to adhere overnight with 0.5 mL of growth medium (DMEM 10% FBS 1% P/S). The culture medium was changed the day after. At day 5, culture media was changed and supplemented with 0, 300 nM, or 1 μM of cilengitide. At day 6, medium was removed, and cells were washed twice with PBS. Cells were then lysed and RNA extracted followed by an RT-PCR. A Q-PCR was finally performed on selected fibrosis markers.
# To test this hypothesis, we first investigated whether CD51 pharmacological inhibition affects the expression of profibrotic genes in freshly FACS-isolated cardiac PW1^+ cells. These cells were seeded and cultured for 4 days and then treated for 48 h with growing concentrations of cilengitide or vehicle. […]
# [4] = test system: mice subjected to MI via a complete LAD ligation; assay: Myocardial infarction by LAD ligation, cilengitide vs vehicle; assay type: in vivo, mouse
# Description: Male C57BL/6J mice (Janvier labs) or PW1-reporter (PW1^nLacZ) mice received Cilengitide at 10 mg/kg/day (Adooq bioscience, ref: A12372) or vehicle i.p. for 14 days. LAD surgery was performed 7 days after starting cilengitide or vehicle administration. Mice were divided in 4 groups: MI-CIL (Cilengitide), MI-Veh (vehicle), Ctrl-CIL and Ctrl-Veh. At Day 14, animals were euthanatized and hearts were carefully collected, incubated for 2 h at 4° C. in 4% Formaldehyde solution (Ted Pella) then 24 h in 30% sucrose/PBS solution before OCT embedding and frozen in liquid nitrogen vapours. Echocardiographic measurements were taken at days 0 and 7 to assess cardiac function.
# When comparing more than 2 groups, quantitative data were analyzed using one-way ANOVA and pair wise comparisons with Tukey's test for multiple comparisons. The Mann Whitney U test was used for comparing continuous variables between 2 groups. A log rank (Mantel-Cox) test was used to compare survival between groups. P-values <0.05 were considered significant.
# Mice were pre-treated for 7 days with cilengitide or vehicle and were then subjected to MI via a complete LAD ligation. The mice were further daily treated with cilengitide or vehicle for additional 7 days before final evaluation of cardiac function and remodeling (FIG. 1a).
# [5] = sham animals (no MI), cilengitide 10 mg/kg/day i.p., data not shown
smiles,measurement,setting,value
"CC(C)[C@H]1C(=O)N[C@@H](CCCN=C(N)N)C(=O)NCC(=O)N[C@@H](CC(=O)O)C(=O)N[C@H](Cc2ccccc2)C(=O)N1C [cilengitide, 2-[(2S,5R,8S,11S)-5-benzyl-11-{3-[(diaminomethylidene)amino]propyl}-7-methyl-3,6,9,12,15-pentaoxo-8-(propan-2-yl)-1,4,7,10,13-pentaazacyclopentadecan-2-yl]acetic acid]",inhibiting activity against the integrin αV,[1],strong inhibiting activity
same,number of β-gal+ cells that did not express vimentin,[2]; p<0.001,significant increase
same,proportion of cells co-expressing β-gal and vimentin,[2]; p<0.05,significant reduction
same,Colla1 expression,[3],not affected
same,aSma (or Acta2) expression,[3],significant down-regulation
same,mmp2 expression,[3],significant down-regulation
same,tgfrb1 expression,[3],significant down-regulation
same,survival,"[4]; 7 days after MI, cilengitide 10 mg/kg/day i.p. for 14 days, started 7 days before LAD ligation, vs vehicle, p<0.05 log-rank",significant improvement
same,cardiac function as measured by left ventricular ejection fraction,"[4]; 7 days after MI, cilengitide 10 mg/kg/day i.p., vs vehicle",significant increase
same,infarct size,"[4]; 7 days after MI, masson trichrome, digital image quantification, 10 mg/kg/day i.p., vehicle 56.8±14.9%, p=0.0008",38.8±7.9%
same,interstitial fibrosis measured in the remote myocardial area,"[4]; 7 days after MI, picrosirius red, 10 mg/kg/day i.p., vehicle 36.8±13.1%, p<0.0001",15.9±10.4%
same,cardiac rupture (adverse outcome),[4]; post-MI mice under cilengitide treatment,did not observe
same,cardiac fibrosis in sham animals,[4]; [5],not associated with any changes
same,cardiac function in sham animals,[4]; [5],not associated with any changes
same,survival in sham animals,[4]; [5],not associated with any changes
